Assay results taken from PubChem BioAssay AID743333 (Broad Institute, 2014).
Activity calls are given as the source filed them.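 How the source made its calls: active means signal falls with dose and an IC50 can be fitted at or below twice the top valid tested dose; inconclusive means flat fit showing 30 to 70% loss, or poor fit; inactive means activity in the rising direction, plus the rest.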

Legend:
[1] = A549 cell cytotoxicity, dose response, cytotoxicity control, plate reader, dry powder, set 8 (AID 743333); conditions: A549 viability, CellTiter-Glo ATP luminescence, 72 h; at 15 µM (top of the series)
[2] = tested on: A549 viability, CellTiter-Glo ATP luminescence, 72 h; assay: as above

## Cc1cnc(NC(=O)c2cc(S(=O)(=O)N3CCCC3)ccc2N2CCCC2)s1
[1]
  activity change, negative = cytotoxicity: 0.402% (inactive)

## Cc1csc(NC(=O)c2cc(S(=O)(=O)N(C)C)ccc2N2CCCC2)n1
[1]
  activity change, negative = cytotoxicity: -6.7% (inactive)

## CN(C)S(=O)(=O)c1ccc(N2CCCC2)c(C(=O)Nc2nc3ccccc3s2)c1
[1]
  activity change, negative = cytotoxicity: -13.7% (inactive)

## Cc1cnc(NC(=O)c2cc(S(=O)(=O)N(C)C)ccc2C2CCCC2)s1
[1]
  activity change, negative = cytotoxicity: 0.274% (inactive)

## CN(C)CCCN(Cc1cc2ccccc2[nH]c1=O)C(=O)Nc1ccccc1
[1]
  activity change, negative = cytotoxicity: 2.4% (inactive)

## CN(C)S(=O)(=O)c1ccc(N2CCCC2)c(C(=O)Nc2nccs2)c1
[1]
  activity change, negative = cytotoxicity: 1.36% (inactive)

## Cc1cnc(NC(=O)c2cc(S(=O)(=O)N(C)C)ccc2N2CCC2)s1
[1]
  activity change, negative = cytotoxicity: -8.88% (inactive)

## COc1ccc2nc(NC(=O)c3cc(S(=O)(=O)N(C)C)ccc3N3CCCC3)sc2c1
[1]
  activity change, negative = cytotoxicity: -4.45% (inactive)

## Cc1ccc(NC(=O)c2cc(S(=O)(=O)N(C)C)ccc2N2CCCC2)cc1
[1]
  activity change, negative = cytotoxicity: -13.5% (inactive)

## CN(C)S(=O)(=O)c1ccc(N2CCCC2)c(C(=O)Nc2ccccc2)c1
[1]
  activity change, negative = cytotoxicity: -5.56% (inactive)

## CCN(CC)c1ccc(S(=O)(=O)N(C)C)cc1C(=O)Nc1ncc(C)s1
[2]
  IC50: > 30 µM (inactive)

## Cc1cnc(NC(=O)c2cc(S(=O)(=O)N3CCOCC3)ccc2N2CCCC2)s1
[1]
  activity change, negative = cytotoxicity: -9.98% (inactive)

## Cc1cnc(NC(=O)c2cc(S(=O)(=O)N(C)C)ccc2N(C)C)s1
[1]
  activity change, negative = cytotoxicity: -6.64% (inactive)

## Cc1cnc(NC(=O)c2cc(S(=O)(=O)N3CCCCC3)ccc2N2CCCC2)s1
[1]
  activity change, negative = cytotoxicity: 9.07% (inactive)

## COc1ccc2sc(NC(=O)c3cc(S(=O)(=O)N(C)C)ccc3N3CCCC3)nc2c1
[1]
  activity change, negative = cytotoxicity: 8.3% (inactive)

## CN(C)CCCN(Cc1cc2ccccc2[nH]c1=O)C(=O)NCc1ccccc1
[1]
  activity change, negative = cytotoxicity: -4.79% (inactive)

## CN(C)S(=O)(=O)c1ccc(N2CCCC2)c(C(=O)Nc2cccc(F)c2)c1
[1]
  activity change, negative = cytotoxicity: -8.14% (inactive)

## Cc1cnc(NC(=O)c2cc(S(=O)(=O)N(C)C)ccc2N2CCCC2)s1
[1]
  activity change, negative = cytotoxicity: -12% (inactive)

## COc1cccc2sc(NC(=O)c3cc(S(=O)(=O)N(C)C)ccc3N3CCCC3)nc12
[1]
  activity change, negative = cytotoxicity: -2.59% (inactive)
